According to ChEMBL document CHEMBL1201862, “PubChem BioAssay data set” (2004):
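48-hour exposure; five concentrations; linearly interpolated endpoints. Here, GI50 denotes the concentration required for 50% inhibition of growth.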 The source made the active and inactive calls. Rule as the data show it: active = GI50 up to about 1.1 µM and inactive = higher.

Assays:
Experiment in all cases: DTP human tumour cell line panel, 48 h
KM12 = system: KM12
OVCAR-3 = system: OVCAR-3
SF-268 = system: SF-268
OVCAR-4 = system: OVCAR-4
SK-MEL-28 = system: SK-MEL-28
TK-10 = system: TK-10
UO-31 = system: UO-31
LXFL 529 = system: LXFL 529
SNB-75 = system: SNB-75
M14 = system: M14
SF-539 = system: SF-539
HOP-62 = system: HOP-62
CAKI-1 = system: CAKI-1
HOP-92 = system: HOP-92
COLO 205 = system: COLO 205
MDA-MB-231 = system: MDA-MB-231
MDA-N = system: MDA-N
BT-549 = system: BT-549
DU-145 = system: DU-145
Hs-578T = system: Hs-578T

Measured: GI50

Cc1cc(C)nc(NS(=O)(=O)c2ccc(Nc3c4ccc(Cl)cc4nc4c(C(=O)Nc5ccc(S(N)(=O)=O)cc5)cccc34)cc2)n1
inactive: KM12 14.2 µM | OVCAR-3 15.5 µM | SF-268 39.2 µM | OVCAR-4 23.5 µM | SK-MEL-28 33.8 µM | TK-10 36.3 µM | UO-31 18.6 µM | LXFL 529 23.8 µM | SNB-75 20.3 µM | M14 17.4 µM | SF-539 17.2 µM | HOP-62 14.1 µM

COCCCCCC(=O)CP(=O)(OC)OC
inactive: KM12 > 100 µM | OVCAR-3 > 100 µM | CAKI-1 > 100 µM | SF-268 > 100 µM | SK-MEL-28 > 100 µM | TK-10 > 100 µM | UO-31 > 100 µM | LXFL 529 > 100 µM | SNB-75 > 100 µM | M14 > 100 µM | HOP-92 > 100 µM | SF-539 > 100 µM | COLO 205 > 100 µM | HOP-62 > 100 µM

CC(C)=CCC/C(C)=C/CC/C(C)=C/CC/C=C(\C)CC/C=C(\C)CCC1SC1(C)C (stereo unspecified)
inactive: KM12 > 100 µM | CAKI-1 > 100 µM | SF-268 > 100 µM | OVCAR-4 > 100 µM | SK-MEL-28 > 100 µM | TK-10 > 100 µM | UO-31 > 100 µM | LXFL 529 > 100 µM | SNB-75 > 100 µM | M14 > 100 µM | HOP-92 64 µM | SF-539 > 100 µM | COLO 205 > 100 µM | HOP-62 > 100 µM

COc1ccccc1N1C(=O)C2c3[nH]c4ccccc4c3C3CCC(C(C)(C)C)CC3C2C1=O (stereo unspecified)
inactive: SF-268 > 100 µM | OVCAR-4 > 100 µM | SK-MEL-28 > 100 µM | UO-31 > 100 µM | LXFL 529 > 100 µM | SNB-75 > 100 µM | M14 > 100 µM | HOP-92 > 100 µM | SF-539 > 100 µM | COLO 205 > 100 µM | HOP-62 > 100 µM

CCCCC1(OC(=O)CCC(=O)O)CCC2(CCC(C)C(C/C=C(C)/C=C/C(O)C(C)/C=C/C(=O)O)O2)OC1CC/C(C)=C/C(=O)O (stereo unspecified)
inactive: KM12 3.1 µM | OVCAR-3 2.64 µM | CAKI-1 4.14 µM | SF-268 2.51 µM | OVCAR-4 2.1 µM | SK-MEL-28 2.02 µM | TK-10 17 µM | UO-31 2.97 µM | LXFL 529 1.8 µM | SNB-75 2.31 µM | M14 1.92 µM | HOP-92 1.67 µM | SF-539 1.77 µM | COLO 205 16.6 µM | HOP-62 2.09 µM

CCn1cc(/C=C/C(C)c2cn(CC)c(=O)[nH]c2=O)c(=O)[nH]c1=O (stereo unspecified)
inactive: KM12 > 100 µM | OVCAR-3 > 100 µM | CAKI-1 > 100 µM | SF-268 > 100 µM | OVCAR-4 > 100 µM | SK-MEL-28 > 100 µM | TK-10 > 100 µM | UO-31 > 100 µM | LXFL 529 > 100 µM | SNB-75 84.7 µM | M14 > 100 µM | HOP-92 11.3 µM | SF-539 > 100 µM | COLO 205 > 100 µM | HOP-62 > 100 µM

O=C(NCCOCCO)c1ccc(O)cc1
inactive: SF-268 > 100 µM | SK-MEL-28 > 100 µM | TK-10 > 100 µM | UO-31 > 100 µM | LXFL 529 > 100 µM | M14 > 100 µM | HOP-92 > 100 µM | SF-539 > 100 µM | COLO 205 > 100 µM | HOP-62 > 100 µM

CC1(C)CCC(Sc2ccccc2)O1 (stereo unspecified)
inactive: KM12 > 100 µM | OVCAR-3 > 100 µM | CAKI-1 > 100 µM | SF-268 > 100 µM | OVCAR-4 > 100 µM | SK-MEL-28 > 100 µM | TK-10 > 100 µM | UO-31 > 100 µM | LXFL 529 > 100 µM | SNB-75 92 µM | M14 > 100 µM | HOP-92 > 100 µM | SF-539 > 100 µM | COLO 205 > 100 µM | HOP-62 > 100 µM

C/C=C1/C=CC2c3[nH]c4ccccc4c3CCN2C1 (stereo unspecified)
inactive: KM12 > 400 µM | OVCAR-3 116 µM | CAKI-1 > 400 µM | SF-268 > 400 µM | SK-MEL-28 > 400 µM | TK-10 > 400 µM | LXFL 529 > 400 µM | HOP-92 199 µM | SF-539 > 400 µM | COLO 205 > 400 µM | HOP-62 > 400 µM

COc1cc(CC(=O)c2ccc3c(c2)OCO3)cc(OC)c1OC
inactive: KM12 68.4 µM | OVCAR-3 > 100 µM | CAKI-1 > 100 µM | SF-268 > 100 µM | OVCAR-4 > 100 µM | SK-MEL-28 > 100 µM | TK-10 > 100 µM | UO-31 > 100 µM | LXFL 529 > 100 µM | SNB-75 > 100 µM | M14 > 100 µM | HOP-92 > 100 µM | SF-539 > 100 µM | COLO 205 > 100 µM | HOP-62 > 100 µM

CCN(CC)CC(C(C)=O)C(c1ccccc1)c1c(O)c2ccccc2oc1=O (stereo unspecified)
inactive: KM12 > 100 µM | OVCAR-3 > 100 µM | CAKI-1 > 100 µM | SF-268 > 100 µM | OVCAR-4 > 100 µM | SK-MEL-28 > 100 µM | TK-10 > 100 µM | UO-31 > 100 µM | LXFL 529 > 100 µM | SNB-75 42.4 µM | M14 > 100 µM | SF-539 > 100 µM | COLO 205 > 100 µM | HOP-62 > 100 µM

Cn1nc(-c2ccccc2)c2c(/C=C/c3ccc(F)cc3)onc2c1=O
inactive: CAKI-1 27.4 µM | SF-268 > 100 µM | SK-MEL-28 > 100 µM | TK-10 90.6 µM | UO-31 29.2 µM | LXFL 529 > 100 µM | M14 > 100 µM | HOP-92 2.72 µM | SF-539 61.9 µM | COLO 205 > 100 µM | HOP-62 > 100 µM

COc1ccc(C2CCc3cc4c(cc3/C2=N/OC(C)=O)OCO4)cc1OC (stereo unspecified)
inactive: KM12 20.8 µM | OVCAR-3 15.3 µM | SF-268 12.9 µM | OVCAR-4 27.1 µM | SK-MEL-28 18.4 µM | TK-10 39 µM | UO-31 17.2 µM | LXFL 529 26.4 µM | SNB-75 18.3 µM | M14 20.6 µM | HOP-92 23.1 µM | SF-539 17.9 µM | COLO 205 22.5 µM | HOP-62 40.3 µM

NC(=O)Nc1c([N+](=O)[O-])cc(C(F)(F)F)cc1[N+](=O)[O-]
inactive: KM12 57.8 µM | OVCAR-3 28.8 µM | CAKI-1 > 100 µM | SF-268 > 100 µM | OVCAR-4 63.1 µM | SK-MEL-28 > 100 µM | TK-10 > 100 µM | UO-31 > 100 µM | LXFL 529 > 100 µM | M14 > 100 µM | HOP-92 40.5 µM | SF-539 > 100 µM | COLO 205 34.5 µM | HOP-62 > 100 µM

C=CCN(N=O)C(=O)ON1C(=O)CCC1=O
inactive: KM12 > 100 µM | OVCAR-3 > 100 µM | SF-268 > 100 µM | OVCAR-4 > 100 µM | SK-MEL-28 > 100 µM | TK-10 > 100 µM | UO-31 > 100 µM | LXFL 529 > 100 µM | SNB-75 75.9 µM | M14 > 100 µM | HOP-92 > 100 µM | SF-539 > 100 µM | COLO 205 > 100 µM | HOP-62 > 100 µM

COC(=O)c1ccccc1C1CN=NC12Cc1cc(C)ccc1C2=O (stereo unspecified)
inactive: KM12 92.9 µM | MDA-MB-231 21.5 µM | OVCAR-3 57 µM | CAKI-1 84.1 µM | SF-268 > 100 µM | OVCAR-4 > 100 µM | MDA-N 72.9 µM | SK-MEL-28 > 100 µM | TK-10 16.6 µM | UO-31 52.4 µM | SNB-75 71 µM | M14 > 100 µM | BT-549 > 100 µM | HOP-92 43.2 µM | SF-539 > 100 µM | COLO 205 > 100 µM | DU-145 > 100 µM | Hs-578T 49 µM | HOP-62 > 100 µM

O=c1[nH]/c(=C/c2ccc(OCc3ccccc3)cn2)c(=O)[nH]/c1=C/c1ccc([N+](=O)[O-])cc1
inactive: KM12 > 100 µM | MDA-MB-231 > 89.3 µM | OVCAR-3 > 100 µM | CAKI-1 > 37.8 µM | SF-268 > 54.2 µM | OVCAR-4 > 100 µM | MDA-N > 100 µM | SK-MEL-28 > 100 µM | TK-10 > 100 µM | UO-31 > 100 µM | SNB-75 27.1 µM | M14 > 100 µM | BT-549 54.7 µM | HOP-92 > 100 µM | SF-539 > 61.4 µM | COLO 205 > 100 µM | DU-145 > 100 µM | Hs-578T 35.8 µM | HOP-62 55.1 µM

C=CCNC1=C2C[C@@H](C)C[C@@H](OC)C(OC(=O)CCCN(C)C)[C@H](C)/C=C(\C)[C@@H](OC(N)=O)[C@H](OC)/C=C\C=C(/C)C(=O)NC(=CC1=O)C2=O (stereo partly specified)
inactive: KM12 4.07 µM | MDA-MB-231 5.45 µM | OVCAR-3 3.3 µM | CAKI-1 12.4 µM | SF-268 12.6 µM | OVCAR-4 9.14 µM | MDA-N 7.26 µM | SK-MEL-28 13.7 µM | TK-10 11.6 µM | UO-31 13.6 µM | SNB-75 10.9 µM | M14 8.53 µM | BT-549 13.4 µM | HOP-92 17.7 µM | SF-539 6.73 µM | COLO 205 2.82 µM | DU-145 5.02 µM | Hs-578T 17.5 µM | HOP-62 9.95 µM
